According to ChEMBL document CHEMBL1201862, “PubChem BioAssay data set” (2004):
Activity calls are given as the source filed them.

Tests used:
[1] = target: T1, Zinc finger protein mex-5 (Caenorhabditis elegans, UniProt Q9XUB2); assay: MEX-5/TCR-2 RNA interaction inhibitors, dose response, biochemical, C. elegans, fluorescence polarization (AID 1960)
T1 sequence (Q9XUB2 whole entry): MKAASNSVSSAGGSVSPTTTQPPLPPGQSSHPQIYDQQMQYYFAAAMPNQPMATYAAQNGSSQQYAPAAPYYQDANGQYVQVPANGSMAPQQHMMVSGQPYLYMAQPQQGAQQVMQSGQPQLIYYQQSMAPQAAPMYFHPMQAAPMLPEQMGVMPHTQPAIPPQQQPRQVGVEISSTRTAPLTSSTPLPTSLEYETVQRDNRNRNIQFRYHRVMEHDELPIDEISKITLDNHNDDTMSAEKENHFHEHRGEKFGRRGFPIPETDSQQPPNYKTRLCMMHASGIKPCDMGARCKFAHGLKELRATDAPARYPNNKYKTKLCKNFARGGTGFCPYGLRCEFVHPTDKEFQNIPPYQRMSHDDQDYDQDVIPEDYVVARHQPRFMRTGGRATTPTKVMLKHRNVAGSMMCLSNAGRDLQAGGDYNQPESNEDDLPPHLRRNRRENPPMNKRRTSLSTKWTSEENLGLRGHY

[2] = target: T2, Alkaline phosphatase, tissue-nonspecific isozyme (Homo sapiens, UniProt P05186); assay: TNAP enzyme inhibition by screening hits, dose response, selectivity assay for mouse IAP inhibitor project, biochemical, human TNAP, uHTS hits (AID 488906); assay type: functional
T2 sequence (P05186 whole entry): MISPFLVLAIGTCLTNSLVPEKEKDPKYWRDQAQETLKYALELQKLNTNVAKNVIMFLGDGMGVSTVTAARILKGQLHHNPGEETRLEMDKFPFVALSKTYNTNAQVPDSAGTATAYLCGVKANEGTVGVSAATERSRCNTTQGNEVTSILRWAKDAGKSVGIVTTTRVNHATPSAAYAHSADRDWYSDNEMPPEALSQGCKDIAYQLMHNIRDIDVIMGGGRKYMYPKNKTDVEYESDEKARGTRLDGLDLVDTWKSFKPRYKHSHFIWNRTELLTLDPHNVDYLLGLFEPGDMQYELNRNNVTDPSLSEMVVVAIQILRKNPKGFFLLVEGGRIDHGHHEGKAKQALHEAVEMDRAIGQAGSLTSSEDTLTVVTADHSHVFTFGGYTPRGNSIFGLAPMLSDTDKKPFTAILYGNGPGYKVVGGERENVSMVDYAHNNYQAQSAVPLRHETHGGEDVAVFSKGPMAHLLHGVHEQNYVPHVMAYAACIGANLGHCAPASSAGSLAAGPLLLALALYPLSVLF

Large T antigen = Large T antigen (Simian virus 40, UniProt P03070); assay type: functional, Betapolyomavirus macacae;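 note: Confirmatory-stage PubChem screen for compounds that inhibit SV40 T antigen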
Chain of Large T antigen (P03070 whole entry, the tested form may be a part): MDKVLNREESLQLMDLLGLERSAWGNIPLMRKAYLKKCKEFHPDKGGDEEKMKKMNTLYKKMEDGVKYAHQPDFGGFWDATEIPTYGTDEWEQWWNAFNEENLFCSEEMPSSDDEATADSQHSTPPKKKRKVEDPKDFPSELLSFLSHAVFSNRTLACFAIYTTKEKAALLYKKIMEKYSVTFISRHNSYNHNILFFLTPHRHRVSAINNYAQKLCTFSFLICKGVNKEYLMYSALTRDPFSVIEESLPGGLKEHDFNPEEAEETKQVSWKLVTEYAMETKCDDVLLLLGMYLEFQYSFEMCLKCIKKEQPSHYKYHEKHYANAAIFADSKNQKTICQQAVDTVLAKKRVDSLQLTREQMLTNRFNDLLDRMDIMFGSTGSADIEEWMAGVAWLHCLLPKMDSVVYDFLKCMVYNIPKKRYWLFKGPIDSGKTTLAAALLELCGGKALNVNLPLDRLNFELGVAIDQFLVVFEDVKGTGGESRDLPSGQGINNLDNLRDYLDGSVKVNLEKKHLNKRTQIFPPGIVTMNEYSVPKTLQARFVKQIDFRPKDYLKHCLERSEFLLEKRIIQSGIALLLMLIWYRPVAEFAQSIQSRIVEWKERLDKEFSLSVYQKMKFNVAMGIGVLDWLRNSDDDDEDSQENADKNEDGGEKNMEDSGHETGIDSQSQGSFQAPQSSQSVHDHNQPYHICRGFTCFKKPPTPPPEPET

[3] = target: T3, RNA-binding protein pos-1 (Caenorhabditis elegans, UniProt G5EF15); assay: inhibitors of POS-1/mex-3 RNA binding, dose response, biochemical, fluorescence polarization (AID 1964);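 note: purified POS-1 fused to maltose binding protein made in E. coli; potency of compounds blocking POS-1 binding to fluorescent RNA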
T3 sequence (G5EF15 whole entry): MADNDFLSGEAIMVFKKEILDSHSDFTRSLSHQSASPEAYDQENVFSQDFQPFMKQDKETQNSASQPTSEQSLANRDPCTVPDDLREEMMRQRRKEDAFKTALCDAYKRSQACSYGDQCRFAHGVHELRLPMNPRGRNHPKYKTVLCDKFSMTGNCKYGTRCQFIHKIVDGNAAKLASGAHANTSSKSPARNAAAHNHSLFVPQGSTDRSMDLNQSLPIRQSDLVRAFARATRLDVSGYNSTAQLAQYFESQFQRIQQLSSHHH

[4] = target: Intestinal-type alkaline phosphatase (Homo sapiens, UniProt P09923); assay: inhibition of human intestinal alkaline phosphatase – biochemical, dose response (AID 488876); assay type: functional
Chain of Intestinal-type alkaline phosphatase (Homo sapiens, UniProt P09923) (P09923 whole entry): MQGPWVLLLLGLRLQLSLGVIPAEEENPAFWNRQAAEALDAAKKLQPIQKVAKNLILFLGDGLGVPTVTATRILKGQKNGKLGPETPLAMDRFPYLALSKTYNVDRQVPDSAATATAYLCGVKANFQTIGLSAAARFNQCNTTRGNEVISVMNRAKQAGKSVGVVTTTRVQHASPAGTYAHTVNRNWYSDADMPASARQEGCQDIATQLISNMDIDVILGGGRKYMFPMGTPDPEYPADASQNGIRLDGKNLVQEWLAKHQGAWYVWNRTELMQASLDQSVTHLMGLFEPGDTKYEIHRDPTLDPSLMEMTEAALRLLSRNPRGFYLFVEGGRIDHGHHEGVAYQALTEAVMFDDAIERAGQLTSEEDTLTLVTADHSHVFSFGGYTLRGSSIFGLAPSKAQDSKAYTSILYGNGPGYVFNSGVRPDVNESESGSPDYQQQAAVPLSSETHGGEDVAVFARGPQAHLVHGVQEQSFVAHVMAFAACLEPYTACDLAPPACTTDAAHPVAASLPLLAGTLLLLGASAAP

[5] = target: Intestinal-type alkaline phosphatase (Mus musculus, UniProt P24822); assay: PubChem AID 488785; assay type: functional
Chain of Intestinal-type alkaline phosphatase (Mus musculus, UniProt P24822) (P24822 whole entry): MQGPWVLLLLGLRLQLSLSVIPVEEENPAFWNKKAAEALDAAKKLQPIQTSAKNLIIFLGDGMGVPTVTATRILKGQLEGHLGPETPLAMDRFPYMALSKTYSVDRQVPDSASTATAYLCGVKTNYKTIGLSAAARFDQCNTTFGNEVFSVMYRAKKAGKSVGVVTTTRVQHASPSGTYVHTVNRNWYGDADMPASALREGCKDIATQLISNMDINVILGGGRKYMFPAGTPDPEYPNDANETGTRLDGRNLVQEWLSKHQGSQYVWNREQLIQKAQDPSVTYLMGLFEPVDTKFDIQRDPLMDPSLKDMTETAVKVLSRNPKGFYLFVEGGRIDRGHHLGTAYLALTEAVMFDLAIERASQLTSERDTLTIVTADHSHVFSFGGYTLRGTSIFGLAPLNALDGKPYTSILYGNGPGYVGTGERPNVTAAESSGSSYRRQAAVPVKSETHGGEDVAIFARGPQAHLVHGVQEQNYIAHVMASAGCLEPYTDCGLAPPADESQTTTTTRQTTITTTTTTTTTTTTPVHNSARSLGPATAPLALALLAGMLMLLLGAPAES

Phosphomannomutase 2 = Phosphomannomutase 2 (Homo sapiens, UniProt O15305); assay: Counter screen SAR assay for PMM2 inhibitors via a fluorescence intensity assay. [Related pubchem assays (depositor defined):AID1545, AID1574]
Chain of Phosphomannomutase 2 (O15305 whole entry): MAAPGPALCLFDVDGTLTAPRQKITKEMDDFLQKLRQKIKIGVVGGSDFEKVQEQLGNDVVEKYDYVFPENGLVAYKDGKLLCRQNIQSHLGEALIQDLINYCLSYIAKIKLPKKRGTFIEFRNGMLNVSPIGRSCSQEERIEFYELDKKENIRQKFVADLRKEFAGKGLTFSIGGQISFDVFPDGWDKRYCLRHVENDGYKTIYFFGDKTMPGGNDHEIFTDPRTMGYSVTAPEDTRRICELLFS

[6] = target: T4, Mannose-6-phosphate isomerase (Homo sapiens, UniProt P34949); assay: PMI enzyme inhibitors, confirmation, biochemical, fluorescence intensity (AID 1535)
T4 sequence (P34949 whole entry): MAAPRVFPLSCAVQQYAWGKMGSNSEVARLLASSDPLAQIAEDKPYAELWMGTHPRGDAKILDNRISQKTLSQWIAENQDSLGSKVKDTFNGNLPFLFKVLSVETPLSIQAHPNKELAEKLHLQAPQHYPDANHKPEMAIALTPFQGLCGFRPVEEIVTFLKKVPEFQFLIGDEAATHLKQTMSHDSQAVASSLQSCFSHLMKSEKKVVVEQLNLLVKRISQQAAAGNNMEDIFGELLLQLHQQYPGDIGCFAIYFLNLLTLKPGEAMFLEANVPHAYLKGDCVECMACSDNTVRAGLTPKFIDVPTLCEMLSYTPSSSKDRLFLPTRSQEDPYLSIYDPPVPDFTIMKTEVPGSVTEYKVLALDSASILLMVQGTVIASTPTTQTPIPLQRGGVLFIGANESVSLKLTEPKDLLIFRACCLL

[7] = target: T5, Calpain-2 catalytic subunit (Sus scrofa, UniProt P43367); assay: pig calpain II inhibitor potency, dose response, biochemical, fluorogenic peptide substrate (AID 1420); assay type: functional
T5 sequence (P43367 whole entry): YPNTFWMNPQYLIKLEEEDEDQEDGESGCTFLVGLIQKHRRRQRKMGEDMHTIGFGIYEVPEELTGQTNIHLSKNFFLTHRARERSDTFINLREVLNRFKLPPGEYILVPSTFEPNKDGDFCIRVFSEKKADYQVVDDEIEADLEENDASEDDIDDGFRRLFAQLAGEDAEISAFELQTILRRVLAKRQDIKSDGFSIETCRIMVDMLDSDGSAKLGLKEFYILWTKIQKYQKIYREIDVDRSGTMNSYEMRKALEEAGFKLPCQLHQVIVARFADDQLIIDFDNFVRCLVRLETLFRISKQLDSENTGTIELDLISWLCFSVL

CAAX prenyl protease 1 = CAAX prenyl protease 1 (Saccharomyces cerevisiae S288c, UniProt P47154); assay: Ste24 protease inhibitors, dose response, biochemical, S. cerevisiae, plate reader, cherry-pick (AID 488815)
Chain of CAAX prenyl protease 1 (P47154 whole entry): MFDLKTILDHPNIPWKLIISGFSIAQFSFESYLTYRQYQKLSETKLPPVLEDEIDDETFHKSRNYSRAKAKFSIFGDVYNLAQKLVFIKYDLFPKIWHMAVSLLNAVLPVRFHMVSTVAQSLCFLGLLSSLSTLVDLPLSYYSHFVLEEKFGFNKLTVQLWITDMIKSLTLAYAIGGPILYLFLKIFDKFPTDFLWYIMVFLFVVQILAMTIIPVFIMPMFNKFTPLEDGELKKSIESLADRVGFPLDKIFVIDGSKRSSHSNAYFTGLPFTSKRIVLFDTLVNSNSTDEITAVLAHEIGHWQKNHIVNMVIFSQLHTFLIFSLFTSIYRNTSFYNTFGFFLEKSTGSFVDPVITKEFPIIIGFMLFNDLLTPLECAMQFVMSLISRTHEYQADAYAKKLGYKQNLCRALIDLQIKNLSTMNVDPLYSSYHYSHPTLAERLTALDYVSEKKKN

[8] = HEp-2 cell cytotoxicity, dose response, cytotoxicity control for RSV inhibitor project, HTS (AID 2410); assay type: functional; settings: human respiratory syncytial virus
Interleukin-8 [9] = target: T6, Interleukin-8 (Homo sapiens, UniProt P10145); assay: SAR analysis of Tumor necrosis factor alpha (TNF-alpha) induced IL-8 secretion in MCF-7/NOD1 cells - Set 2. [Related pubchem assays (depositor defined):AID1575, AID2250, AID2260]; assay type: functional, cell-based
T6 sequence (P10145 whole entry): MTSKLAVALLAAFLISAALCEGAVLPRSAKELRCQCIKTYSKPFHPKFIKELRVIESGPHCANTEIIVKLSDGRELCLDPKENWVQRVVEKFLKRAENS

[10] = target: T7, Nucleotide-binding oligomerization domain-containing protein 2 (Homo sapiens, UniProt Q9HC29); assay: NOD2 inhibitors, SAR follow-up, set 2 (AID 2475); assay type: functional
T7 sequence (Q9HC29 whole entry, the tested form may be a part): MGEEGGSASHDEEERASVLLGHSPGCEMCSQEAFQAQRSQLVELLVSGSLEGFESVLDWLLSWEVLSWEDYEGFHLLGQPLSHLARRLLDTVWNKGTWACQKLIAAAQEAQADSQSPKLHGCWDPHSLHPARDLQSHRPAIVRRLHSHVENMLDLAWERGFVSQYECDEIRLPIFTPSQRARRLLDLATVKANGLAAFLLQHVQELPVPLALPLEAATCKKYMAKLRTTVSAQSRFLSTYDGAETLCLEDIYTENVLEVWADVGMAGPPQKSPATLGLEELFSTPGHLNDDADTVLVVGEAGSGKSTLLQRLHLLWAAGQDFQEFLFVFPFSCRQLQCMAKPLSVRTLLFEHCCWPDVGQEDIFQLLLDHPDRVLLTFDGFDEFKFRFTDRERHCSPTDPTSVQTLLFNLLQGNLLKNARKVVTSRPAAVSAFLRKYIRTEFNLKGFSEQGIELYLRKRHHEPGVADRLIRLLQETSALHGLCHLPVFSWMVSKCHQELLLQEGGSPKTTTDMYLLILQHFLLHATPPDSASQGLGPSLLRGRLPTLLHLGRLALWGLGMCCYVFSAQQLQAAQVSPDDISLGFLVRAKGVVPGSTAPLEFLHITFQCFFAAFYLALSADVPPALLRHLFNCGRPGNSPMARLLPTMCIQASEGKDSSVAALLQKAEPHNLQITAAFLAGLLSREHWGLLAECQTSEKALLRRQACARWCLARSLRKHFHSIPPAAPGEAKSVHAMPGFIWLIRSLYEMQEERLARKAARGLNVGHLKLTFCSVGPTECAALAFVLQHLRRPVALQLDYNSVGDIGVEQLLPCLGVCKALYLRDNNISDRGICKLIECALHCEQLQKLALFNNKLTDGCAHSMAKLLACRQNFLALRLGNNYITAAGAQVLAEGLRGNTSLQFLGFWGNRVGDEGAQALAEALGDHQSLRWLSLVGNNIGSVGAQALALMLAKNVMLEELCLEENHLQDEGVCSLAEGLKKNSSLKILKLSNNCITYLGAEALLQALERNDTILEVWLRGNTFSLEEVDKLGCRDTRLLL

[11] = target: T8, Nucleotide-binding oligomerization domain-containing protein 1 (Homo sapiens, UniProt Q9Y239); assay: SAR analysis of compounds that inhibit NOD1 - Set 2. [Related pubchem assays (depositor defined):AID1566, AID1575, AID1578, AID1849, AID1852, AID2333, AID2335, AID2798]; assay type: functional
T8 sequence (Q9Y239 whole entry): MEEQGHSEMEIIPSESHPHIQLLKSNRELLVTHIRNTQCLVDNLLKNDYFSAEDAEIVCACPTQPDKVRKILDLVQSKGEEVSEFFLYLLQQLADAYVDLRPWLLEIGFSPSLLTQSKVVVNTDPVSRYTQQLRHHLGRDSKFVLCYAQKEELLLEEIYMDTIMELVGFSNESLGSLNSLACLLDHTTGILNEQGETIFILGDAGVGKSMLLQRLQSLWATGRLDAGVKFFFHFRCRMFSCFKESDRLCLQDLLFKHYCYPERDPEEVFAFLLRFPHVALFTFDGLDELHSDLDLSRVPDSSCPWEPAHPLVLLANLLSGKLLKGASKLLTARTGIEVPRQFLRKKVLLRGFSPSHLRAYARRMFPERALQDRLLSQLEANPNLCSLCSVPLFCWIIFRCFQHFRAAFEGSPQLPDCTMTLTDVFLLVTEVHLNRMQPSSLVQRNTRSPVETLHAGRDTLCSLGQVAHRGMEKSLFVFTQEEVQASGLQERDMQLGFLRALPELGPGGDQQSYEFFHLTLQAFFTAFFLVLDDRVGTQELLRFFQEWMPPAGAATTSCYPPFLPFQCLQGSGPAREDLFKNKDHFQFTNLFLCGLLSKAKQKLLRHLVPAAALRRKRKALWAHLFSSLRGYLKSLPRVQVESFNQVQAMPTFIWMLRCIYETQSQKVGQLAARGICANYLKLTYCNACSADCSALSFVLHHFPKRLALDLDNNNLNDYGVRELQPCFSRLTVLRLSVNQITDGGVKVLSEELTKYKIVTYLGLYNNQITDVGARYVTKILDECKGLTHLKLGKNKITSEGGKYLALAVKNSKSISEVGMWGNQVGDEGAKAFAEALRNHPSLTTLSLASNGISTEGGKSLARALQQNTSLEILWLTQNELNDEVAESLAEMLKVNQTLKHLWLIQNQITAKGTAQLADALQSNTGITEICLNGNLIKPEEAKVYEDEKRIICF

HEK293 [12] = assay: SAR analysis of compounds that are cytotoxic to HEK293 - Set 3. [Related pubchem assays (depositor defined):AID1575, AID1578, AID1848, AID1849, AID2001, AID2333, AID2334, AID2335, AID2337, AID2469]; assay type: functional, cell-based; settings: Homo sapiens
[13] = target: T8, Nucleotide-binding oligomerization domain-containing protein 1; assay: SAR analysis of NF-kappaB dependent luciferase using DAP as an inducer - Set 2. [Related pubchem assays (depositor defined):AID1566, AID1575, AID1578, AID1579, AID1849, AID1852, AID2264]; assay type: functional
[14] = target: T7, Nucleotide-binding oligomerization domain-containing protein 2; assay: NOD2 signaling inhibitors, analog potency, SAR follow-up, cell-based, set 3 (AID 2799); assay type: functional
[15] = target: T8, Nucleotide-binding oligomerization domain-containing protein 1; assay: SAR analysis of compounds that inhibit NOD1 - Set 3. [Related pubchem assays (depositor defined):AID1566, AID1575, AID1578, AID1849, AID1852, AID2333, AID2335, AID2466]; assay type: functional
Tumor necrosis factor = Tumor necrosis factor (Homo sapiens, UniProt P01375); assay: TNFa-triggered NF-kB activation inhibitors, SAR follow-up, cell-based, set 3 (AID 2801); assay type: functional
Chain of Tumor necrosis factor (P01375 whole entry): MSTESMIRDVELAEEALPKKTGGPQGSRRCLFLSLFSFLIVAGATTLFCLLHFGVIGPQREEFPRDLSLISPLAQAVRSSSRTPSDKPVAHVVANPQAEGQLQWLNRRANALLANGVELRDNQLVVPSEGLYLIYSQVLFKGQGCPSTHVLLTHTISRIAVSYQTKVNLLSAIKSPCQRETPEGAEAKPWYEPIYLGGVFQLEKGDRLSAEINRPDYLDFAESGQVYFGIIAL

HEK293 [16] = assay: SAR analysis of compounds that are cytotoxic to HEK293 - Set 2. [Related pubchem assays (depositor defined):AID1575, AID1578, AID1849, AID2001, AID2333, AID2334, AID2335, AID2337, AID2800]; assay type: functional, cell-based; settings: Homo sapiens
Interleukin-8 [17] = target: T6, Interleukin-8; assay: SAR analysis of GM-Tri-DAP induced IL-8 secretion in MCF-7/NOD1 cells - Set 2. [Related pubchem assays (depositor defined):AID1575, AID1578, AID2333]; assay type: functional, cell-based
[18] = target: T9, Kappa-type opioid receptor (Homo sapiens, UniProt P41145); assay: KOR antagonists by imaging, SAR follow-up, image-based (AID 2348); assay type: functional
T9 sequence (P41145 whole entry): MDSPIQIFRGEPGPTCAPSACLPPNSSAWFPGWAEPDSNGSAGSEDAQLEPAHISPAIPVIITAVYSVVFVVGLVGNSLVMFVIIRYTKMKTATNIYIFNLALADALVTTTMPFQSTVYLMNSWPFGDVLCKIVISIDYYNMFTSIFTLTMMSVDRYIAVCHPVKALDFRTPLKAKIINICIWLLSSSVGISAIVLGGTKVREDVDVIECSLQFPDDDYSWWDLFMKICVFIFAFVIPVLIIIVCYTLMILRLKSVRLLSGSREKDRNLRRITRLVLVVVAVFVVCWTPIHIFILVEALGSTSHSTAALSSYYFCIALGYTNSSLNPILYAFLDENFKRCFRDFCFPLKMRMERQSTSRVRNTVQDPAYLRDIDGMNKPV

[19] = target: T9, Kappa-type opioid receptor; assay: KOR agonist analogs, imaging readout, SAR follow-up, image-based (AID 2359); assay type: functional
Mu-type opioid receptor [20] = target: T10, Mu-type opioid receptor (Homo sapiens, UniProt P35372); assay: MOR antagonists, SAR follow-up, image-based (AID 2420); assay type: functional;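 note: compounds added before stimulation of receptor with agonist DAMGO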
T10 sequence (P35372 whole entry): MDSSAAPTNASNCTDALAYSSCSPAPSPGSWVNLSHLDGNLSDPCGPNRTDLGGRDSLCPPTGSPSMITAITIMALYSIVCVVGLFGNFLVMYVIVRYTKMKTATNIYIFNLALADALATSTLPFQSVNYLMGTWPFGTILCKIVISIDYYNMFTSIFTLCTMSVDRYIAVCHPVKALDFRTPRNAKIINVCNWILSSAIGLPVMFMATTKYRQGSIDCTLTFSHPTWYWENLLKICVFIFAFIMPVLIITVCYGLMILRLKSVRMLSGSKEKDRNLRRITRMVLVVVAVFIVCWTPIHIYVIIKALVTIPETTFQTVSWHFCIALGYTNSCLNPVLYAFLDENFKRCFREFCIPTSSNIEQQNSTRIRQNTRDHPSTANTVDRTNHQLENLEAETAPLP

[21] = target: T11, Delta-type opioid receptor (Homo sapiens, UniProt P41143); assay: DOR antagonists, SAR follow-up, image-based (AID 2357); assay type: functional
T11 sequence (P41143 whole entry): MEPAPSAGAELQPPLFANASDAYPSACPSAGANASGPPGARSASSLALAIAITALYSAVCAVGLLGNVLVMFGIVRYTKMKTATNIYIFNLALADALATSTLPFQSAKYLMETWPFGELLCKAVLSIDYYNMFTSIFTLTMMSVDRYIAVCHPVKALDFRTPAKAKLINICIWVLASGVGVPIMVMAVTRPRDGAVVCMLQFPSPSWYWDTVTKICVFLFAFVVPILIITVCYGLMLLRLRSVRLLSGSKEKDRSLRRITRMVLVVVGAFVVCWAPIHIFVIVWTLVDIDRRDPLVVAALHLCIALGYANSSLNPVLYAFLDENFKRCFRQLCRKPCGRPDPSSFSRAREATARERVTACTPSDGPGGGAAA

[22] = target: T9, Kappa-type opioid receptor; assay: SAR analysis of small molecule agonists of the kappa opioid receptor via a luminescent beta-arrestin assay. [Related pubchem assays (depositor defined):AID1777, AID1786, AID1966, AID2133, AID2136, AID2348, AID2352, AID2357, AID2359, AID2370, AID2420, AID2478, AID2491, AID2492, AID2493, AID2497, AID2498, AID2500, AID449737, AID488822, AID488842]; assay type: functional
Mu-type opioid receptor [23] = target: T10, Mu-type opioid receptor; assay: MOR agonists by imaging, SAR follow-up, image-based (AID 2352); assay type: functional
[24] = target: T11, Delta-type opioid receptor; assay: DOR agonists, SAR follow-up, image-based (AID 2370); assay type: functional

## O=C1CNC(=S)N1CCc1ccc(O)c(O)c1
[1]
  EC50: 26.8 µM (active)
[2]
  IC50: > 100 µM (inactive)
Large T antigen
  IC50: 39.6 µM (active)
[3]
  EC50: > 300 µM (not active)
[4]
  IC50: > 100 µM (inactive)
[5]
  IC50: 6 µM (active)

## COc1ccc(C)c(/N=c2\ssnc2Cl)c1
Phosphomannomutase 2
  IC50: > 100 µM (inactive)
[6]
  IC50: 49.9 µM (active)

## Cc1ccc(Nc2nc(-c3ccc(S(=O)(=O)N4CCOCC4)cc3)cs2)cc1Cl
[7]
  IC50: 9.54 µM (active)
CAAX prenyl protease 1
  AC50: > 100 µM (inactive)
[8]
  CC50: 4.91 µM (active)

## CCCn1c(SCCc2ccccc2)nc2c1c(=O)[nH]c(=O)n2C
Interleukin-8 [9]
  IC50: > 25 µM (inactive)
[10]
  IC50: > 20 µM (inactive)
[11]
  IC50: > 20 µM (inactive)
HEK293 [12]
  IC50: > 20 µM (inactive)
[13]
  IC50: > 25 µM (inactive)
[14]
  IC50: > 20 µM (inactive)
[15]
  IC50: > 20 µM (inactive)
Tumor necrosis factor
  IC50: > 20 µM (inactive)
HEK293 [16]
  IC50: > 20 µM (inactive)
Interleukin-8 [17]
  IC50: > 25 µM (inactive)

## O=C(c1ccccn1)N(Cc1cc2ccccc2[nH]c1=O)C1CCCCC1
[18]
  IC50: > 32 µM (inactive)
[19]
  EC50: 18.1 µM (inactive)
Mu-type opioid receptor [20]
  IC50: > 32 µM (inactive)
[21]
  IC50: > 32 µM (inactive)
[22]
  EC50: > 10 µM (inactive)
Mu-type opioid receptor [23]
  EC50: > 32 µM (inactive)
[24]
  EC50: > 32 µM (inactive)
